Data: US9133235B2, “Macrocyclic antagonists of the motilin receptor for treatment of gastrointestinal dysmotility disorders” (Ocera Therapeutics, Inc., priority 2006, dated 2015)
“And” between values parts separate entries of the source, which are not always exact repeats. Equal entries are not always repeated.

Experiments:
[1] = Oral bioavailability in rat of representative formulations of compound 552; assay type: in vivo
Excerpt: The pharmacokinetic behavior of compound of the invention can be ascertained by methods well known to those skilled in the art. (Wilkinson, G. R. “Pharmacokinetics: The Dynamics of Drug Absorption, Distribution, and Elimination” in Goodman & Gilman's The Pharmacological Basis of Therapeutics, Tenth Edition, Hardman, J. G.; Limbird, L. E., Eds., McGraw Hill, Columbus, Ohio, 2001, Chapter 1.) The following method was used to investigate the pharmacokinetic parameters (elimination half-life, total plasma clearance, etc.) for intravenous, subcutaneous and oral administration of compounds of the present invention.
Preparation of Representative Formulations of Compounds of the Invention
The pharmacokinetic parameters of representative formulations are determined through established methods known to those skilled-in the art as previously referenced in Method 3-I. Results with representative formulations for a representative compound of the present invention are shown below.

[2] = system: isolated colonic segments from the shrew; assay: Contractile activity of isolated muscle strips of the shrew
Excerpt: J. Evaluation of Contractile Activity of Isolated Muscle Strips from the Stomach, Duodenum and Colon of the Shrew.
Motilin (threshold concentration of 10^−8 M) enhances contractions induced by electrical field stimulation (4 Hz) by a post-ganglionic interaction with the cholinergic neurotransmission. At higher concentrations, motilin causes a tonic contraction interacting directly with the antral smooth muscle. Analogously, the effects of motilin and [Nle^13]-motilin (Calbiochem), as selective agonists of the motilin receptor, on smooth muscle strips isolated from the gastric antrum, the circular muscle of the duodenum and the colon of the shrew were investigated. Immunohistochemical studies have shown that endocrine cells in the GI tract of the musk shrew express motilin (Kanamori, Y.; Nakazawa, S.; Kitoh, J.; Hoshino, M. The distribution of endocrine cells in the mucosa of the gastrointestinal tract of the house musk shrew, Suncus murinus (Insectivora). Cell. Tissue Res. 1989, 258, 365-71; Kitamura, N.; Yamada, J.; Watanabe, T.; Yamashita, T. An immunohistochemical study on the distribution of endocrine cells in the gastrointestinal tract of the musk shrew, Suncus murinus. Histol Histopathol. 1990, 5, 83-88.) Shrews were fasted for 8-10 h, euthanized with CO2 inhalation, and the stomach, the duodenum and colon isolated immediately and placed in Krebs buffer aerated with 95% O2 and 5% CO2. Specifically, mucosa-free circular muscle strips were isolated from the antral region, the duodenum and the colon using a dissecting microscope. Isometric contractions were recorded in organ baths following equilibration at optimal tension using the PowerLab data acquisition system. […]
To define the effect of test compounds on different regions of the GI tract of the shrew (gastric antrum, […] and colon) and to evaluate the antagonist affinity of test compounds in this model system, the ability of varying concentrations of test compound to antagonize the motilin or [Nle^13]-motilin-induced contractions was measured in organ baths as described above. […]

[3] = oral 8 mg/kg, 5% HP-β-CD in water
[4] = oral 8 mg/kg, Cremophor EL/Lysorbate 80/Soybean oil
[5] = oral 8 mg/kg, Oleic Acid/Labrafil
[6] = plasma, IV 2 mg/kg, 5% HP-β-CD in water
[7] = plasma, iv, 2 mg/kg, IV 2 mg/kg, 5% HP-β-CD in water
[8] = plasma, po, 8 mg/kg, oral 8 mg/kg, 5% HP-β-CD in water
[9] = plasma, po, 8 mg/kg, oral 8 mg/kg, Cremophor EL/Lysorbate 80/Soybean oil
[10] = plasma, po, 8 mg/kg, oral 8 mg/kg, Oleic Acid/Labrafil

F (%) (average) [1, 3]: 10 ± 5%
Tmax (min) [1, 3]: 5/15
F (%) (individual results) ([1]; oral 8 mg/kg, 5% HP-β-CD in water, 8 mg/kg): 6% and 15% and 9%
F (%) (average) [1, 4]: 16 ± 1%
Tmax (min) [1, 4]: 15/30
F (%) (individual results) ([1]; oral 8 mg/kg, Cremophor EL/Lysorbate 80/Soybean oil, 8 mg/kg): 18% and 15% and 16%
F (%) (average) [1, 5]: 14 ± 7%
Tmax (min) [1, 5]: 30/60
F (%) (individual results) ([1]; oral 8 mg/kg, Oleic Acid/Labrafil, 8 mg/kg): 7% and 21% and 15%
Clearance [1, 6]: 55 ± 10 mL/min/kg
Tmax [1, 6]: 5 min
half-life [1, 6]: 45 ± 13 min
AUC(0-inf) [1, 7]: 616 ng·h/mL
Cmax [1, 7]: 1720 ± 299 ng/mL
AUC(0-inf) [1, 8]: 255 ng·h/mL
Cmax [1, 8]: 369 ± 97 ng/mL
AUC(0-inf) [1, 9]: 397 ng·h/mL
Cmax [1, 9]: 229 ± 162 ng/mL
AUC(0-inf) [1, 10]: 357 ng·h/mL
Cmax [1, 10]: 143 ± 77 ng/mL
Structure (SMILES): CCC[C@@H]1NC(=O)[C@@H](C(C)C)NC(=O)[C@@H](Cc2ccc(O)c(Cl)c2)N[C@@H](C)COc2ccccc2CCCNC1=O [Compound 552]
effect on contractile response to 0.3 μM [Nle^13]-motilin ([2]; 0.01 μM-10 μM, FIG. 18): dose-dependent inhibition
effect on contractile response to 0.3 μM motilin ([2]; 0.01 μM-10 μM, FIG. 18): dose-dependent inhibition
change in basal contractile activity ([2]; data not shown): did not cause a significant change
